Reference: PubChem BioAssay AID256 (DTP/NCI, 2004)
“And” between values parts separate entries of the source, which are not always exact repeats. Equal entries are not always repeated. Inconclusive results and toxic doses are left out. The calls were made as follows: active = survival T/C of 150% or more; inactive = T/C below 125% in these data.

Tested on: CD2F1 mice, L1210 leukemia ip, survival T/C
Assay: NCI In Vivo Anticancer Drug Screen. Data for tumor model L1210 Leukemia (intraperitoneal) in CD2F1 (CDF1) mice
Conditions: higher = longer survival
Method in brief: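 In this screen, transplantable tumors were grown in mice given either the compound or its vehicle. Results were expressed as the treated measurement relative to the control measurement.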

[1] = endpoint: mean survival time, dose: 100.0 mg/kg/injection, schedule: Q01DX009 (ip), vehicle: saline with Tween-80
[2] = endpoint: mean survival time, dose: 200.0 mg/kg/injection, schedule: Q01DX009 (ip), vehicle: saline with Tween-80
[3] = endpoint: mean survival time, dose: 400.0 mg/kg/injection, schedule: Q01DX009 (ip), vehicle: saline with Tween-80
[4] = endpoint: mean survival time, dose: 100.0 mg/kg/injection, schedule: Q04DX003 (ip), vehicle: saline with Tween-80
[5] = endpoint: mean survival time, dose: 200.0 mg/kg/injection, schedule: Q04DX003 (ip), vehicle: saline with Tween-80
[6] = endpoint: mean survival time, dose: 100.0 mg/kg/injection, schedule: Q01DX009 (ip), vehicle: saline
[7] = endpoint: mean survival time, dose: 200.0 mg/kg/injection, schedule: Q01DX009 (ip), vehicle: saline
[8] = endpoint: mean survival time, dose: 400.0 mg/kg/injection, schedule: Q01DX009 (ip), vehicle: saline
[9] = endpoint: mean survival time, dose: 100.0 mg/kg/injection, schedule: Q01DX001 (ip), vehicle: saline
[10] = endpoint: mean survival time, dose: 200.0 mg/kg/injection, schedule: Q01DX001 (ip), vehicle: saline

Measured: T/C

COc1cc([N+](=O)[O-])c(C(=O)O)c(C(=O)O)c1OC
inactive: endpoint: mean survival time, dose: 12.5 mg/kg/injection, schedule: Q04DX002 (ip), vehicle: saline with Tween-80 104 % of control | endpoint: mean survival time, dose: 25.0 mg/kg/injection, schedule: Q04DX002 (ip), vehicle: saline with Tween-80 96 % of control | endpoint: mean survival time, dose: 50.0 mg/kg/injection, schedule: Q04DX002 (ip), vehicle: saline with Tween-80 104 % of control

N#[N+]c1cnc([O-])[nH]c1=O
inactive: endpoint: mean survival time, dose: 0.5 mg/kg/injection, schedule: Q07DX Z (ip), vehicle: saline 106 % of control | endpoint: mean survival time, dose: 1.0 mg/kg/injection, schedule: Q07DX Z (ip), vehicle: saline 112 % of control | endpoint: mean survival time, dose: 2.0 mg/kg/injection, schedule: Q03DX Z (ip), vehicle: saline 112 % of control | endpoint: mean survival time, dose: 2.0 mg/kg/injection, schedule: Q07DX Z (ip), vehicle: saline 118 % of control | endpoint: mean survival time, dose: 4.0 mg/kg/injection, schedule: Q07DX Z (ip), vehicle: saline 116 % of control | endpoint: mean survival time, dose: 8.0 mg/kg/injection, schedule: Q01DX001 (ip), vehicle: saline 112 % of control | endpoint: mean survival time, dose: 16.0 mg/kg/injection, schedule: Q01DX001 (ip), vehicle: saline 112 % of control | endpoint: mean survival time, dose: 32.0 mg/kg/injection, schedule: Q01DX001 (ip), vehicle: saline 115 % of control and 117 % of control

COc1ccccc1OC
inactive: [1] 95 % of control | [2] 92 % of control | [3] 92 % of control

O=[N+]([O-])c1ccc(Cl)c2ncccc12
inactive: [4] 101 % of control | [5] 104 % of control

NC(=S)Nc1ccc([N+](=O)[O-])cc1
inactive: endpoint: mean survival time, dose: 25.0 mg/kg/injection, schedule: Q04DX003 (ip), vehicle: other 96 % of control | endpoint: mean survival time, dose: 50.0 mg/kg/injection, schedule: Q04DX003 (ip), vehicle: other 91 % of control | endpoint: mean survival time, dose: 100.0 mg/kg/injection, schedule: Q04DX003 (ip), vehicle: other 88 % of control and 95 % of control

O=[N+]([O-])c1ccc2nocc2c1
inactive: endpoint: mean survival time, dose: 25.0 mg/kg/injection, schedule: Q04DX003 (ip), vehicle: Klucel (hydroxypropylcellulose) (HPC) 105 % of control | endpoint: mean survival time, dose: 50.0 mg/kg/injection, schedule: Q04DX003 (ip), vehicle: Klucel (hydroxypropylcellulose) (HPC) 97 % of control | endpoint: mean survival time, dose: 100.0 mg/kg/injection, schedule: Q04DX003 (ip), vehicle: Klucel (hydroxypropylcellulose) (HPC) 101 % of control

NCCc1cc(O)c(O)c(O)c1
inactive: endpoint: mean survival time, dose: 12.5 mg/kg/injection, schedule: Q01DX009 (ip), vehicle: saline 96 % of control and 100 % of control | endpoint: mean survival time, dose: 25.0 mg/kg/injection, schedule: Q01DX009 (ip), vehicle: saline 100 % of control and 102 % of control | endpoint: mean survival time, dose: 50.0 mg/kg/injection, schedule: Q01DX009 (ip), vehicle: saline 103 % of control and 106 % of control | [6] 122 % of control | [7] 119 % of control and 124 % of control | [8] 119 % of control

O=C(CNC(=O)NCc1ccco1)NNC(=O)Nc1ccc(Cl)c([N+](=O)[O-])c1
inactive: [1] 94 % of control | [2] 87 % of control | [3] 91 % of control

COC(=O)C(C#N)=C(C)C
inactive: endpoint: mean survival time, dose: 10.0 mg/kg/injection, schedule: Q01DX009 (ip), vehicle: saline with Tween-80 110 % of control | endpoint: mean survival time, dose: 10.0 mg/kg/injection, schedule: Q04DX003 (ip), vehicle: saline 96 % of control | endpoint: mean survival time, dose: 20.0 mg/kg/injection, schedule: Q01DX009 (ip), vehicle: saline with Tween-80 101 % of control | endpoint: mean survival time, dose: 20.0 mg/kg/injection, schedule: Q04DX003 (ip), vehicle: saline 96 % of control | endpoint: mean survival time, dose: 40.0 mg/kg/injection, schedule: Q01DX009 (ip), vehicle: saline with Tween-80 104 % of control | endpoint: mean survival time, dose: 40.0 mg/kg/injection, schedule: Q04DX003 (ip), vehicle: saline 96 % of control

O=C(O)C1(c2ccccc2)OCCO1
inactive: endpoint: mean survival time, dose: 100.0 mg/kg/injection, schedule: Q04DX003 (ip), vehicle: saline 103 % of control | endpoint: mean survival time, dose: 200.0 mg/kg/injection, schedule: Q04DX003 (ip), vehicle: saline 103 % of control | endpoint: mean survival time, dose: 400.0 mg/kg/injection, schedule: Q04DX003 (ip), vehicle: saline 97 % of control

Cc1nc(C(Cl)C2OC(CO)C(O)C2O)cc(=O)[nH]1 (stereo not given)
inactive: endpoint: median survival time, dose: 18.25 mg/kg/injection, schedule: Q01DX005 (ip), vehicle: saline 118 % of control | endpoint: median survival time, dose: 36.5 mg/kg/injection, schedule: Q01DX005 (ip), vehicle: saline 100 % of control | endpoint: median survival time, dose: 73.0 mg/kg/injection, schedule: Q01DX005 (ip), vehicle: saline 102 % of control | endpoint: median survival time, dose: 146.0 mg/kg/injection, schedule: Q01DX005 (ip), vehicle: saline 100 % of control

O=C(Nc1c(Oc2ccc(Cl)cc2Cl)ccc(Cl)c1S(=O)(=O)O)Nc1c(Oc2ccc(Cl)cc2Cl)ccc(Cl)c1S(=O)(=O)O
inactive: [9] 94 % of control | [10] 93 % of control

CC(C(=O)O)C1CCC2C3CC=C4CC(O)CCC4(C)C3CCC12C (stereo not given)
inactive: [4] 99 % of control | [5] 100 % of control | endpoint: mean survival time, dose: 400.0 mg/kg/injection, schedule: Q04DX003 (ip), vehicle: saline with Tween-80 100 % of control

O=[N+]([O-])C(CO)(CO)CO
inactive: [6] 98 % of control | [7] 96 % of control | [8] 104 % of control

CCOC(=O)/C(Br)=C/SCCN
inactive: [9] 111 % of control | [10] 105 % of control | endpoint: mean survival time, dose: 400.0 mg/kg/injection, schedule: Q01DX001 (ip), vehicle: saline 100 % of control
